According to patent publication US4517299A, “Acetylesterases” (Fujisawa Pharmaceutical Co., Ltd., priority 1980, dated 1985):

Assays:
[1] = tested on: Aureobasidium pullulans IFO 4466 Acetylesterase 4466-II (Enzyme solution B); test: Determination of Km, hydrolysis of cephalosporin C to deacetylcephalosporin C (HPLC); type: biochemical; settings: 0.05M acetate buffer pH 4.0, 30° C., one hour, cephalosporin C sodium dihydrate 0.2-5%, read-out: Km (substrate cephalosporin C)
Method: (§1) (In case that the substrate is cephalosporin C)
(§2) Km values of Acetylesterase 4466-I and Acetylesterase 4466-II were determined in the following method.
(§3) To 0.05M acetate buffer solution (pH 4.0) containing cephalosporin C sodium dihydrate in a various concentration (0.2-5%)(4.5 ml), was added enzyme solution (0.5 ml).
(§4) The reaction mixture was incubated on a shaker at 30° C. for an hour. Subsequently, produced deacetyl cephalosporin C and unreacted cephalosporin C were determined by high pressure liquid chromatography. Km values of each esterase were calculated in a conventional manner.

[2] = tested on: Aureobasidium pullulans IFO 4466 Acetylesterase 4466-I (Enzyme solution A); test: as above; type: biochemical; settings: 0.05M acetate buffer pH 4.0, 30° C., one hour, cephalosporin C sodium dihydrate 0.2-5%, read-out: Km (substrate cephalosporin C)
Method: as §1, §2, §3, §4

## CC(=O)OCC1=C(C(=O)O)N2C(=O)[C@@H](NC(=O)CCC[C@@H](N)C(=O)O)[C@H]2SC1 [cephalosporin C]
[1]
  Km: 13.7 mM
[2]
  Km: 11.5 mM
